According to ChEMBL document CHEMBL4371084, “Design, synthesis and biological evaluation of novel HIV-1 protease inhibitors with pentacyclic triterpenoids as P2-ligands” (Bioorg Med Chem Lett, 2019):

Each molecule was assayed against Protease (Human immunodeficiency virus 1) (UniProt Q9YQ12) (assay: Potency index, ratio of ursolic acid IC50 to test compound IC50 for HIV1 protease expressed in Escherichia coli).
Chain of Protease (Human immunodeficiency virus 1) (Q9YQ12 as listed by the source): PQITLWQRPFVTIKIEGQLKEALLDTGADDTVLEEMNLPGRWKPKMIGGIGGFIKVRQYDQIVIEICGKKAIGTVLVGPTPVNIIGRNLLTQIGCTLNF
For CC(C)CN(C[C@@H](O)[C@H](Cc1ccccc1)NC(=O)[C@]12CC[C@@H](C)[C@H](C)[C@H]1C1=CC[C@@H]3[C@@]4(C)CC[C@H](O)C(C)(C)[C@@H]4CC[C@@]3(C)[C@]1(C)CC2)S(=O)(=O)c1ccc(N)cc1, the Ratio IC50 was 67.

Each molecule was assayed against Protease (Human immunodeficiency virus 1, UniProt Q9YQ12) (assay: Inhibition of HIV1 protease expressed in Escherichia coli using Arg-Glu (EDANS)-Ser-Gln-Asn-Tyr-Pro-Ile-Val-Gln-Lys(DABCYL)-Arg as substrate preincubated for 20 to 30 mins followed by substrate addition and measured for 10 mins by FRET assay).
Chain of Protease (Q9YQ12 whole entry): as the sequence (Q9YQ12 as listed by the source) above
Molecule CC(C)CN(C[C@@H](O)[C@H](Cc1ccccc1)NC(=O)[C@]1(C)CC[C@@H]2C3=CC(=O)[C@@H]4[C@@]5(C)CC[C@H](O)C(C)(C)[C@@H]5CC[C@@]4(C)[C@]3(C)CC[C@@]2(C)C1)S(=O)(=O)c1ccc(N)cc1 has an IC50 of 0.49 µM. Molecule CC(C)CN(C[C@@H](O)[C@H](Cc1ccccc1)NC(=O)[C@]12CCC(C)(C)C[C@H]1C1=CC[C@@H]3[C@@]4(C)CC[C@H](O)C(C)(C)[C@@H]4CC[C@@]3(C)[C@]1(C)CC2)S(=O)(=O)c1ccc(N)cc1 has an IC50 of 0.17 µM. With COc1ccc(S(=O)(=O)N(CC(C)C)C[C@@H](O)[C@H](Cc2ccccc2)NC(=O)[C@]23CCC(C)(C)C[C@H]2C2=CC[C@@H]4[C@@]5(C)CC[C@H](O)C(C)(C)[C@@H]5CC[C@@]4(C)[C@]2(C)CC3)cc1 the IC50 was 0.24 µM. In the case of COc1ccc(S(=O)(=O)N(CC(C)C)C[C@@H](O)[C@H](Cc2ccccc2)NC(=O)[C@]23CC[C@@H](C)[C@H](C)[C@H]2C2=CC[C@@H]4[C@@]5(C)CC[C@H](O)C(C)(C)[C@@H]5CC[C@@]4(C)[C@]2(C)CC3)cc1, the IC50 is reported as 0.46 µM. Molecule CC(C)CN(C[C@@H](O)[C@H](Cc1ccccc1)NC(=O)[C@]12CC[C@@H](C)[C@H](C)[C@H]1C1=CC[C@@H]3[C@@]4(C)CC[C@H](O)C(C)(C)[C@@H]4CC[C@@]3(C)[C@]1(C)CC2)S(=O)(=O)c1ccc(N)cc1 has an IC50 of 0.12 µM. Work on COc1ccc(S(=O)(=O)N(CC(C)C)C[C@@H](O)[C@H](Cc2ccccc2)NC(=O)[C@]2(C)CC[C@@H]3C4=CC(=O)[C@@H]5[C@@]6(C)CC[C@H](O)C(C)(C)[C@@H]6CC[C@@]5(C)[C@]4(C)CC[C@@]3(C)C2)cc1 yielded an IC50 of 1.85 µM. In the case of CC(C)CN(C[C@@H](O)[C@H](Cc1ccccc1)NC(=O)[C@]12CC[C@@H](C)[C@H](C)[C@H]1C1=CC[C@@H]3[C@@]4(C)CCC(=O)C(C)(C)[C@@H]4CC[C@@]3(C)[C@]1(C)CC2)S(=O)(=O)c1ccc(N)cc1, the IC50 is reported as 2.37 µM. For C=C(C)[C@@H]1CC[C@]2(C(=O)N[C@@H](Cc3ccccc3)[C@H](O)CN(CC(C)C)S(=O)(=O)c3ccc(N)cc3)CC[C@]3(C)[C@H](CC[C@@H]4[C@@]5(C)CC[C@H](O)C(C)(C)[C@@H]5CC[C@]43C)[C@@H]12, the IC50 was 0.61 µM. C=C(C)[C@@H]1CC[C@]2(C(=O)N[C@@H](Cc3ccccc3)[C@H](O)CN(CC(C)C)S(=O)(=O)c3ccc([N+](=O)[O-])cc3)CC[C@]3(C)[C@H](CC[C@@H]4[C@@]5(C)CC[C@H](O)C(C)(C)[C@@H]5CC[C@]43C)[C@@H]12 showed an IC50 of 1.05 µM. COc1ccc(S(=O)(=O)N(CC(C)C)C[C@@H](O)[C@H](Cc2ccccc2)NC(=O)[C@]23CC[C@@H](C)[C@H](C)[C@H]2C2=CC[C@@H]4[C@@]5(C)C[C@@H](O)[C@H](O)[C@@](C)(CO)[C@@H]5CC[C@@]4(C)[C@]2(C)CC3)cc1 gave an IC50 of 0.15 µM. C=C(C)[C@@H]1CC[C@]2(C(=O)N[C@@H](Cc3ccccc3)[C@H](O)CN(CC(C)C)S(=O)(=O)c3ccc(OC)cc3)CC[C@]3(C)[C@H](CC[C@@H]4[C@@]5(C)CC[C@H](O)C(C)(C)[C@@H]5CC[C@]43C)[C@@H]12 was tested, and the IC50 was 0.21 µM. CC(C)CN(C[C@@H](O)[C@H](Cc1ccccc1)NC(=O)[C@]1(C)CC[C@H]2C3=CC(=O)[C@@H]4[C@@]5(C)CC[C@H](O)C(C)(C)[C@@H]5CC[C@@]4(C)[C@]3(C)CC[C@@]2(C)C1)S(=O)(=O)c1ccc([N+](=O)[O-])cc1 was tested, and the IC50 was 0.5 µM. For CC(C)CN(C[C@@H](O)[C@H](Cc1ccccc1)NC(=O)[C@]1(C)CC[C@H]2C3=CC(=O)[C@@H]4[C@@]5(C)CC[C@H](O)C(C)(C)[C@@H]5CC[C@@]4(C)[C@]3(C)CC[C@@]2(C)C1)S(=O)(=O)c1ccc(N)cc1, the IC50 was 0.58 µM. CC(C)CN(C[C@@H](O)[C@H](Cc1ccccc1)NC(=O)[C@]12CC[C@@H](C)[C@H](C)[C@H]1C1=CC[C@@H]3[C@@]4(C)C[C@@H](O)[C@H](O)[C@@](C)(CO)[C@@H]4CC[C@@]3(C)[C@]1(C)CC2)S(=O)(=O)c1ccc([N+](=O)[O-])cc1 showed an IC50 of 0.17 µM. For CC(C)CN(C[C@@H](O)[C@H](Cc1ccccc1)NC(=O)[C@]12CC[C@@H](C)[C@H](C)[C@H]1C1=CC[C@@H]3[C@@]4(C)C[C@@H](O)[C@H](O)[C@@](C)(CO)[C@@H]4CC[C@@]3(C)[C@]1(C)CC2)S(=O)(=O)c1ccc(N)cc1, the IC50 was 0.3 µM. Work on CC(C)CN(C[C@@H](O)[C@H](Cc1ccccc1)NC(=O)[C@]12CCC(C)(C)C[C@H]1C1=CC[C@@H]3[C@@]4(C)CC[C@H](O)C(C)(C)[C@@H]4CC[C@@]3(C)[C@]1(C)CC2)S(=O)(=O)c1ccc([N+](=O)[O-])cc1 yielded an IC50 of 0.15 µM. Work on COc1ccc(S(=O)(=O)N(CC(C)C)C[C@@H](O)[C@H](Cc2ccccc2)NC(=O)[C@]23CC[C@@H](C)[C@H](C)[C@H]2C2=CC[C@@H]4[C@@]5(C)CCC(=O)C(C)(C)[C@@H]5CC[C@@]4(C)[C@]2(C)CC3)cc1 yielded an IC50 of 0.37 µM. For CC(C)CN(C[C@@H](O)[C@H](Cc1ccccc1)NC(=O)[C@]1(C)CC[C@@H]2C3=CC(=O)[C@@H]4[C@@]5(C)CC[C@H](O)C(C)(C)[C@@H]5CC[C@@]4(C)[C@]3(C)CC[C@@]2(C)C1)S(=O)(=O)c1ccc([N+](=O)[O-])cc1, the IC50 was 1.08 µM. For CC(C)CN(C[C@@H](O)[C@H](Cc1ccccc1)NC(=O)[C@]12CC[C@@H](C)[C@H](C)[C@H]1C1=CC[C@@H]3[C@@]4(C)CCC(=O)C(C)(C)[C@@H]4CC[C@@]3(C)[C@]1(C)CC2)S(=O)(=O)c1ccc([N+](=O)[O-])cc1, the IC50 was 0.22 µM. Molecule CC(C)CN(C[C@@H](O)[C@H](Cc1ccccc1)NC(=O)[C@]12CC[C@@H](C)[C@H](C)[C@H]1C1=CC[C@@H]3[C@@]4(C)CC[C@H](O)C(C)(C)[C@@H]4CC[C@@]3(C)[C@]1(C)CC2)S(=O)(=O)c1ccc([N+](=O)[O-])cc1 has an IC50 of 0.4 µM. For COc1ccc(S(=O)(=O)N(CC(C)C)C[C@@H](O)[C@H](Cc2ccccc2)NC(=O)[C@]2(C)CC[C@H]3C4=CC(=O)[C@@H]5[C@@]6(C)CC[C@H](O)C(C)(C)[C@@H]6CC[C@@]5(C)[C@]4(C)CC[C@@]3(C)C2)cc1, the IC50 was 0.48 µM.
